Measurements reported in patent US20240174631A1, “COMPOUNDS, COMPOSITIONS, AND METHODS FOR MODULATING FGF ACTIVITY” (Recovery Therapeutics, Inc., priority 2021, published 2024).

Tests used:
FGF2 = biological target: T1, FGF2 (Homo sapiens, UniProt P09038); assay: Thermal shift assay (TSA) of FGFR1/FGF2 complex, FGF2 melting peak; type: binding
T1 construct: made in house; host or cells: Escherichia coli BL21 (DE3) Star
From the text: (§1) TSA was utilized to biophysically characterize the recombinant human FGFR1/FGF2 complex in the presence or absence of compounds. The assay functions by protein denaturation over a temperature gradient. During protein unfolding, exposed hydrophobic regions bind a dye and fluoresce due to solvent relaxation effects. Changes in the melting temperature of the protein complex in the presence of each compound were monitored and compounds were screened/ranked using this method.
One Shot BL21 (DE3) Star Escherichia coli competent cells (Thermo Fisher) were transformed with a relevant FGF2 plasmid and inoculated onto Ampicillin Luria Broth/Agar plates. Two hundred milliliter portions of Terrific Broth starter cultures were used to inoculate 9 L cultures with ampicillin at a concentration of 100 μg/mL. Cultures were grown to an O.D.600 near 1.0 at 37° C., and induced with IPTG overnight at 18° C. The cells were harvested at 7000 RPM in rotor 6000 for 5 min at 4° C. and stored at −80° C. Bacterial pellets were resuspended in 25 mM Hepes-NaOH, pH 7.5, 250 mM NaCl, and the cells were lysed in 3 cycles on/off for 3 minutes each at 4° C. via sonication. After centrifugation for 30 minutes at 16,000 RPM at 4° C., the isolated pellets were discarded, and the supernatant was filtered supernatant through a […] PES filter using 100 mL superloop. The lysate was purified over a 5 mL S column by washing the column with Lysis buffer for 5 CV then eluting using gradient from 250 mM to 1 M NaCl over 20 CV. The fractions containing FGF2 were identified via SDS-PAGE gel (Expected Mw: 15.2 KDa). The protein was collected and diluted in 20 mM Tris-HCl pH 8.0, 25 mM MgCl2 buffer in order to reach a NaCl concentration of 150 mM. The purified FGF2 was concentrated and stored at −80° C.
(§2) Thawed aliquots of purified FGF2 (1.0 mg/mL) and FGFR1 (1.6 mg/mL) proteins were mixed in a 1:1 molar ratio (64 μM: 64 μM) on ice for 30 min at 4° C. and plated prior to the thermal shift assay (TSA). Complex formation was verified by loading the complexed material on a size exclusion column (superdex 300GL S200) and observing the monodisperse peak corresponding to the FGF2/FGFR1 complex (˜40 kDa). Compounds of the invention were screened in dose response format (0-100 μM) with the FGF2/FGFR1 complex in triplicates. FGF2/FGFR1/compound complexes were mixed in a 1000:1 ratio with Sypro Orange dye (Sigma-Aldrich). The samples were processed using a Bio-Rad CFX C96 Touch quantitative polymerase chain reaction and run using the FRET assay settings with a heating ramp of 0.3° C./s cycling from 4 to 100° C. Data analysis was performed using the Bio-Rad CFX Manager Software (version 3.1, Bio-Rad) and changes in the melting temperature (Tm) of the complex in the presence of each compound were monitored. The results are shown in Tables 2 and 3 below and also in FIG. 1 (for Compound 2).

FGFR1 [1] = biological target: T2, FGFR1 (Homo sapiens, UniProt P11362); assay: Phosphorylation of FGFR1 in cells expressing FGFR1 in the presence of submaximal FGF-2; type: cell-based; conditions: increasing concentrations, submaximal concentration of FGF-2; FIG. 2
Protocol: Cells expressing FGFR1 were exposed to increasing concentrations of Compound 2 in the presence of a submaximal concentration of FGF-2. Cells were then lysed, and the relative phosphorylation of FGFR1 was assessed using antibodies to non-phosphorylated and phosphorylated FGFR1. The results are shown in FIG. 2, which is a graph showing the phosphorylation of FGFR1 in the presence of increasing concentrations of Compound 2.
Target sequence in this assay (P11362 22-822): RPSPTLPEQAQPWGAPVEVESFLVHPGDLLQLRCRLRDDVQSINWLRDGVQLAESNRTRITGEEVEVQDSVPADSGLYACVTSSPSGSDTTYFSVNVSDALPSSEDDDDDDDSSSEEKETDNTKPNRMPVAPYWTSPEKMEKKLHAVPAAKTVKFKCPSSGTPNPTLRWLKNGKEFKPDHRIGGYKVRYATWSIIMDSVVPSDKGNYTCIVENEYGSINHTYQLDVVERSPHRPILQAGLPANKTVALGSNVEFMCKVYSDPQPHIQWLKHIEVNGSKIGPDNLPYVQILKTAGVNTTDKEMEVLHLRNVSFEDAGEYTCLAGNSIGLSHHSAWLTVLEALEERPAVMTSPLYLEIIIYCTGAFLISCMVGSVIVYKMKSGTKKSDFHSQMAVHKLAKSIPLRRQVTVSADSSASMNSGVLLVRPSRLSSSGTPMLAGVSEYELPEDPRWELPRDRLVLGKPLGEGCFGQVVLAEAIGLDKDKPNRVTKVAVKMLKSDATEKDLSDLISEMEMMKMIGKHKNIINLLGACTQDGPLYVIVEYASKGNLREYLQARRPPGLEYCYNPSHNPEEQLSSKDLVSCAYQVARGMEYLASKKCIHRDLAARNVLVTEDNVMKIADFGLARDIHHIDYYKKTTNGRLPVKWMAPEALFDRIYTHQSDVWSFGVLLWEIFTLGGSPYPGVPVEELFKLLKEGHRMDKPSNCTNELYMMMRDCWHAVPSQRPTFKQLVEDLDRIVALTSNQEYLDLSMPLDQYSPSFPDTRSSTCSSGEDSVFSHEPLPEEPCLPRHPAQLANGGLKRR
Target sequence in this assay (P09038 143-288 partner): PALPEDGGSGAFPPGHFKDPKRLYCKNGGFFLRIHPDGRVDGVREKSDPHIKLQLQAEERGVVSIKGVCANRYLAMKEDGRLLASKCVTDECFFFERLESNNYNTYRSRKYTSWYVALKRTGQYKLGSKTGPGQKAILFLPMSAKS

FGFR1 [2] = biological target: T2, FGFR1; assay: Thermal shift assay (TSA) of FGFR1/FGF2 complex, FGFR1 melting peak; type: binding; design: made in house; host or cells: Escherichia coli BL21 (DE3) Star
From the text: as §1
Target sequence in this assay (P11362 142-365 limits assumed): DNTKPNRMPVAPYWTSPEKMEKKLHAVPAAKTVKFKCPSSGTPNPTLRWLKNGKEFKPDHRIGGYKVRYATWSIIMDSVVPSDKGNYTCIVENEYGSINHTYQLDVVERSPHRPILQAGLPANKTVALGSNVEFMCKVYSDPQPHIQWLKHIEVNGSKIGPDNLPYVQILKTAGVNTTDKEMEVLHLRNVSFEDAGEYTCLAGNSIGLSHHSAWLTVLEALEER
Target sequence in this assay (P09038 156-288 partner limits assumed): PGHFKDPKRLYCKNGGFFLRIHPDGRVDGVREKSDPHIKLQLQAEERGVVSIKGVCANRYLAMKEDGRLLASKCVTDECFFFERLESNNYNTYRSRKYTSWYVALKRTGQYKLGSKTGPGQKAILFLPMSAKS
Cell pellets were thawed and resuspend in 100 mL of FGFR1 Lysis Buffer per 9 g of pellet (20 mM Tris-HCl pH 8.0, 500 mM NaCl, 1 mM dithiothreitol) by stirring at 4° C. for 1 hour. Cells were lysed in 3 cycles on/off for 3 minutes each at 4° C. via sonication followed by centrifugation for 30 minutes at 16,000 RPM in rotor F20 at 4° C., after which the supernatant was discarded. This process was then repeated twice. The pellets were resuspended in 150 mL FGFR1 solubilization buffer (8 M urea, 20 mM Tris-HCL pH 8.0, 150 mM NaCl, 1 mM dithiothreitol) by stirring for 1 hour at 4° C., and the solution was subjected to centrifugation for 30 minutes at 16,000 RPM in rotor F20 at 4° C. The pellets were discarded, and the supernatant was filtered through a […] polyethersylfone (PES) filter. After filtration, the supernatant was added dropwise to 1 L FGFR1 refolding buffer (20 mM Tris-HCl pH 8.0, 150 mM NaCl, 0.5 M L-arginine, 25 mM MgCl2) using a glass column. Protein was concentrated by tangential flow from 1 L to 100 mL and dialyzed against 1 L of FGFR1 Dialysis Buffer (20 mM Tris-HCl pH 8.0, 150 mM NaCl, 25 mM MgCl2) for 2 hours at 4° C., and the dialysis step was repeated with fresh buffer for an additional 2 hours at 4° C. The material thus obtained was then centrifuged at 4000 RPM in Eppendorf tabletop centrifuge for 5 minutes and loaded onto 2×5 mL heparin columns. The columns were washed extensively (20 CV) using FGFR1 Heparin Buffer A (20 mM Tris-HCl pH 8.0, 150 mM NaCl, 25 mM MgCl2) and then eluted using FGFR1 Heparin Buffer B (20 mM Tris-HCl pH 8.0, 1.5 M NaCl, 25 mM MgCl2). A large peak was recovered that was >95% pure by SDS-PAGE analysis gel (Expected Mw: 25 KDa). The protein was collected and diluted in 20 mM Tris-HCl pH 8.0, 25 mM MgCl2 buffer in order to reach a NaCl concentration of 150 mM. The FGFR1 thus obtained was concentrated and stored at −80° C.
as §2

T1 sequence (P09038 156-288 limits assumed): as the sequence (P09038 156-288 partner limits assumed) above
T1 sequence (P11362 142-365 partner limits assumed): as the sequence (P11362 142-365 limits assumed) above

ΔTm at 2 µM (FGF2; 2 μM compound): -2.5 °C
ΔTm at 10 µM (FGF2; 10 μM compound): -3 °C
phosphorylation of FGFR1 (FGFR1 [1]): augmented the effects of FGF-2
ΔTm at 2 µM (FGFR1 [2]; 2 μM compound, FGF2/FGFR1 complex): 4 °C
ΔTm at 10 µM (FGFR1 [2]; 10 μM compound, FGF2/FGFR1 complex): 4.5 °C
shift of the melting curve of the FGF-2/FGFR1 complex (TSA) (FGFR1 [2]; 10 μM, purified FGF-2/FGFR1 complex, FIG. 1): increased stability of the complex
SMILES: CCN(CC)c1ccc2c(c1)CCN(C1CCN(C(c3ccccc3)c3ccccc3)CC1)C2 [Compound 2, 2-(1-benzhydrylpiperidin-4-yl)-N,N-diethyl-1,2,3,4-tetrahydroisoquinolin-6-amine]
